Columns and labels:
[1] = PSD of modafinil particles, Malvern laser technique; format: physicochemical
Method: (§1) Modafinil PSD was measured in '517 U.S. patent by using a Hiac/Royco machine. This machine uses a light obscuration technique for the PSD measurement. We repeated the measurements of the PSD on a Hiac/Royco machine and compared it with a different laser beam obscuration technique offered by the commonly used Malvern machine. Both methods use light obscuration as means to evaluate the PSD, but they work on different principles. The results confirmed the validity of our PSD measurements. Both methods gave similar values. Both methods also gave PSD results that are far away from the scope of the values claimed by the '517 U.S. Patent. The following table summarizes the data. Values are reported in microns. The term D(v,0.5) denotes the diameter of the largest particle found in 50% of the particles sorted in increasing order. The other two terms refer to 85% and 95% of the particles. The terms mean, median and mode are used in their regular statistical meaning.

[2] = PSD of modafinil used to prepare the modafinil tablets; format: physicochemical; conditions: modafinil used for 200 mg tablets, method not stated
Method: Tablets containing 200 mg of modafinil having PSD as provided in table 2 below (values are in microns) were prepared: […]

[3] = PSD of modafinil particles, Hiac/Royco light obscuration; format: physicochemical; conditions: Hiac
Method: as §1

[4] = '517 U.S. Patent; cited from earlier work

For NC(=O)C[S+]([O-])C(c1ccccc1)c1ccccc1 (centres unmarked) [Batch A, 2-[(diphenylmethyl)sulfinyl]acetamide], the “D(v, 0.5)” value ([1]; listed as A) was 107 microns, the “D(v, 0.85)” value ([1]; listed as A) was 235 microns and the “D(v, 0.95)” value ([1]; listed as A) was 318 microns. For the same molecule, the Median particle size ([1]; listed as A) was 107 microns, the “D(v, 0.5)” value ([2]; listed as A) was 107 microns and the “D(v, 0.85)” value ([2]; listed as A) was 235 microns. The “D(v, 0.95)” value ([2]; listed as A) was 318 microns, the Median ([2]; listed as A) was 107 microns and the “D(v, 0.5)” value ([3]; listed as A) was 133 microns. The “D(v, 0.85)” value ([3]; listed as A) was 229 microns, the “D(v, 0.95)” value ([3]; listed as A) was 282 microns and the Mean particle size ([3]; listed as A) was 51 microns. The Median particle size ([3]; listed as A) was 134 microns and the mode particle size ([3]; listed as A) was 196 microns.
In the case of NC(=O)C[S+]([O-])C(c1ccccc1)c1ccccc1 (centres unmarked) [Batch B, 2-[(diphenylmethyl)sulfinyl]acetamide], the “D(v, 0.5)” value ([1]; listed as B) is reported as 85 microns, the “D(v, 0.85)” value ([1]; listed as B) is reported as 215 microns and the “D(v, 0.95)” value ([1]; listed as B) is reported as 293 microns. The Median particle size ([1]; listed as B) was 85 microns, the “D(v, 0.5)” value ([2]; listed as B) was 85 microns and the “D(v, 0.85)” value ([2]; listed as B) was 215 microns. The “D(v, 0.95)” value ([2]; listed as B) was 293 microns, the Median ([2]; listed as B) was 85 microns and the “D(v, 0.5)” value ([3]; listed as B) was 103 microns. For the same molecule, the “D(v, 0.85)” value ([3]; listed as B) was 194 microns, the “D(v, 0.95)” value ([3]; listed as B) was 265 microns and the Mean particle size ([3]; listed as B) was 40 microns. The Median particle size ([3]; listed as B) was 104 microns and the mode particle size ([3]; listed as B) was 148 microns.
For NC(=O)C[S+]([O-])C(c1ccccc1)c1ccccc1 (centres unmarked) [Batch C, 2-[(diphenylmethyl)sulfinyl]acetamide], the “D(v, 0.5)” value ([1]; listed as C) was 128 microns, the “D(v, 0.85)” value ([1]; listed as C) was 228 microns and the “D(v, 0.95)” value ([1]; listed as C) was 303 microns. For the same molecule, the Median particle size ([1]; listed as C) was 128 microns, the “D(v, 0.5)” value ([2]; listed as C) was 128 microns and the “D(v, 0.85)” value ([2]; listed as C) was 228 microns. For the same molecule, the “D(v, 0.95)” value ([2]; listed as C) was 303 microns, the Median ([2]; listed as C) was 128 microns and the “D(v, 0.5)” value ([3]; listed as C) was 148 microns. For the same molecule, the “D(v, 0.85)” value ([3]; listed as C) was 231 microns, the “D(v, 0.95)” value ([3]; listed as C) was 277 microns and the Mean particle size ([3]; listed as C) was 51 microns. The Median particle size ([3]; listed as C) was 148 microns and the mode particle size ([3]; listed as C) was 193 microns.
With NC(=O)C[S+]([O-])C(c1ccccc1)c1ccccc1 (centres unmarked) [Batch D, 2-[(diphenylmethyl)sulfinyl]acetamide] the “D(v, 0.5)” value ([2]; listed as D) was 95 microns, the “D(v, 0.85)” value ([2]; listed as D) was 217 microns and the “D(v, 0.95)” value ([2]; listed as D) was 297 microns. The Median ([2]; listed as D) was 95 microns.
For NC(=O)C[S+]([O-])C(c1ccccc1)c1ccccc1 (centres unmarked) [“early” batches], the “median value of modafinil particles” value [4] is listed as 94-143 μ and the “size below which 95% of the particles lie” value [4] is listed as 220-280 μ.
In the case of NC(=O)C[S+]([O-])C(c1ccccc1)c1ccccc1 (centres unmarked) [“late” batches], the “median value of modafinil particles” value [4] is given as 31-50 μ and the “size below which 95% of the particles lie” value [4] is given as 110-150 μ.
